The source of these data is patent US20250304576A1 (Cancer Research Technology Limited, priority 2022, published 2025).

Test [1] concerns the target T1, Recombinant IKKα (Homo sapiens, UniProt O15111).
T1 construct: purchased Millipore, Dundee, UK
T1 sequence (O15111 1-745): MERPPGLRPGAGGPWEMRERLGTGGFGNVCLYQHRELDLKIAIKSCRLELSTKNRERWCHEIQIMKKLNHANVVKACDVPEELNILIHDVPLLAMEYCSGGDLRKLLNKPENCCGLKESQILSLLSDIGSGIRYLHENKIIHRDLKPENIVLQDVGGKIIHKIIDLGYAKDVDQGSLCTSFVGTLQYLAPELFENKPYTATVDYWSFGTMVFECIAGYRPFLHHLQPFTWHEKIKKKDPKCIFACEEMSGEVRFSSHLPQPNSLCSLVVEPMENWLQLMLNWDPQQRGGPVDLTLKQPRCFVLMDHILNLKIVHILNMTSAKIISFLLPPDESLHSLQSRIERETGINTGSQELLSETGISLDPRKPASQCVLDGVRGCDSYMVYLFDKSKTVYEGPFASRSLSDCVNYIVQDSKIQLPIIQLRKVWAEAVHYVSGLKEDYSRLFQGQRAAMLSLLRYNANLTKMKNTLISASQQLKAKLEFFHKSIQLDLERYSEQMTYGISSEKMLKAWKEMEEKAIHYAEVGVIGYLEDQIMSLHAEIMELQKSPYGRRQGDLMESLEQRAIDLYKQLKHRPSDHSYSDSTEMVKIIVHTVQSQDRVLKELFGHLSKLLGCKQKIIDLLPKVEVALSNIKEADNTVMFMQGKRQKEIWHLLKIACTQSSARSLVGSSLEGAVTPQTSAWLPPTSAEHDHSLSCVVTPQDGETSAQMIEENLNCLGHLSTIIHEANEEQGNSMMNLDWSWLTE
The test is described as follows: DELFIA IKKα kinase assay (apparent Ki, Cheng-Prusoff). The format is biochemical. The settings on record: non-italicised figure: DELFIA assay. The procedure, abridged: (§1)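 Recombinant IKKα or IKKβ (37 nM) with 0.375 μM biotinylated IκB-α (Ser32) peptide and 40 μM ATP in 40 mM Tris-HCl pH 7.5, 20 mM MgCl2, 60 min at 30° C. Phospho-substrate captured on streptavidin and detected by anti-phospho-IκB-α plus europium anti-mouse IgG time-resolved fluorescence; apparent Ki via Cheng-Prusoff.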

Test [2] deals with T2, Recombinant IKKβ (Homo sapiens, UniProt O14920).
T2 construct: purchased Millipore, Dundee, UK
T2 sequence (O14920 1-756): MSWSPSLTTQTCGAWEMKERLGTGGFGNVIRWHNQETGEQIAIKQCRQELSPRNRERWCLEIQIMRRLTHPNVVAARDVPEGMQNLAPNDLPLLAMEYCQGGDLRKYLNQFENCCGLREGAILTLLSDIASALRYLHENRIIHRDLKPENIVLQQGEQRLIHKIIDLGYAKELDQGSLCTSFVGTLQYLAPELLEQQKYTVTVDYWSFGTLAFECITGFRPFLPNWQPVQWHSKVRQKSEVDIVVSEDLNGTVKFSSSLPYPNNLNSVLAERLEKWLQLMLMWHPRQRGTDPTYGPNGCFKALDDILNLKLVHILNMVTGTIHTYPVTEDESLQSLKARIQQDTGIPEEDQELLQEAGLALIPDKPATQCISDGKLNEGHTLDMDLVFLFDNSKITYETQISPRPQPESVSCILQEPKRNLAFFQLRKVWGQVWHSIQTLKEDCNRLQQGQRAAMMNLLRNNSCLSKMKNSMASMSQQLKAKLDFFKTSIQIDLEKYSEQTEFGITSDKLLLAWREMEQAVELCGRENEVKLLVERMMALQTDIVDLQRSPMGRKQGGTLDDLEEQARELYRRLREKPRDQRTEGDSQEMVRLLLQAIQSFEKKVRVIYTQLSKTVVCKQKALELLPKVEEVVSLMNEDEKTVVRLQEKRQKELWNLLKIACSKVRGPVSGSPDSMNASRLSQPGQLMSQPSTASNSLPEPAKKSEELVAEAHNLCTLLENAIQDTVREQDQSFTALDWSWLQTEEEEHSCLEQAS
The test is described as follows: DELFIA IKKβ kinase assay (apparent Ki, Cheng-Prusoff). The note with it: non-italicised figure: DELFIA assay. The test is classed as biochemical. In short, it runs like this: as §1

Take `Nc1n[nH]c2ccc(-c3ccnc(NC(=O)Nc4ccc(Cl)cc4)c3)cc12` [Example 63]: the results for the Ki in test [1] and in test [2] were 48 nM and 1720 nM, respectively.

With `CC(C)(C)c1ccc(NC(=O)Nc2cc(-c3ccc4[nH]nc(N)c4c3)ccn2)cc1` [Example 64, 1-(4-(3-Amino-1H-indazol-5-yl)pyridin-2-yl)-3-(4-(tert-butyl)phenyl)urea], the Ki in test [1] stood at 76 nM; in test [2], 2900 nM.

As for `CS(=O)(=O)c1ccc(NC(=O)Nc2cc(-c3ccc4[nH]nc(N)c4c3)ccn2)cc1` [Example 65, 1-(4-(3-Amino-1H-indazol-5-yl)pyridin-2-yl)-3-(4-(methylsulfonyl)phenyl)urea], the Ki was found to be 27 nM in test [1] and 419 nM in test [2].

As for `Cc1ccccc1NC(=O)Nc1cc(-c2ccc3[nH]nc(N)c3c2)ccn1` [Example 66, 1-(4-(3-Amino-1H-indazol-5-yl)pyridin-2-yl)-3-(o-tolyl)urea], the Ki was found to be 46 nM in test [1] and 1050 nM in test [2].

For `CCc1ccccc1NC(=O)Nc1cc(-c2ccc3[nH]nc(N)c3c2)ccn1` [Example 67, 1-(4-(3-Amino-1H-indazol-5-yl)pyridin-2-yl)-3-(2-ethylphenyl)urea], the Ki worked out at 300 nM in test [1] and 4200 nM in test [2].

Regarding `CC(C)c1ccccc1NC(=O)Nc1cc(-c2ccc3[nH]nc(N)c3c2)ccn1` [Example 68, 1-(4-(3-Amino-1H-indazol-5-yl)pyridin-2-yl)-3-(2-isopropylphenyl)urea], the values for the Ki in test [1] and in test [2] were 100 nM and 1900 nM, respectively.

Take `Nc1n[nH]c2ccc(-c3ccnc(NC(=O)Nc4cccnc4)c3)cc12` [Example 69, 1-(4-(3-Amino-1H-indazol-5-yl)pyridin-2-yl)-3-(pyridin-3-yl)urea]: the values for the Ki in test [1] and in test [2] were 42 nM and 1190 nM, respectively.

In the case of `Nc1ccc(C#Cc2c(-c3ccc4[nH]nc(N)c4c3)ccnc2N)cc1` [Example 76, 5-(2-Amino-3-((4-aminophenyl)ethynyl)pyridine-4-yl)-1H-indazol-3-amine], the Ki was 8 nM in test [1] and 32 nM in test [2].

For the molecule `Nc1cccc(C#Cc2c(-c3ccc4[nH]nc(N)c4c3)ccnc2N)c1` [Example 77, 5-(2-Amino-3-((3-aminophenyl)ethynyl)pyridine-4-yl)-1H-indazol-3-amine], the Ki in test [1] is 4 nM; in test [2], 22 nM.

With `Nc1ccccc1C#Cc1c(-c2ccc3[nH]nc(N)c3c2)ccnc1N` [Example 78, 5-(2-Amino-3-((2-aminophenyl)ethynyl)pyridine-4-yl)-1H-indazol-3-amine], the Ki was found to be 17 nM in test [1] and 59 nM in test [2].

`COC(=O)c1cccc(C#Cc2c(-c3ccc4[nH]nc(N)c4c3)ccnc2N)c1` [Example 79, Methyl 3-((2-amino-4-(3-amino-1H-indazol-5-yl)149yridine-3-yl)ethynyl)benzoate]: the results for the Ki in test [1] and in test [2] were 17 nM and 128 nM, respectively.

On to `COC(=O)c1ccc(C#Cc2c(-c3ccc4[nH]nc(N)c4c3)ccnc2N)cc1` [Example 80, Methyl 4-((2-amino-4-(3-amino-1H-indazol-5-yl)150yridine-3-yl)ethynyl)benzoate], for which the Ki in test [1] came out at 2 nM; in test [2] it was 15 nM.

As for `COc1ccccc1C#Cc1c(-c2ccc3[nH]nc(N)c3c2)ccnc1N` [Example 81, 5-(2-Amino-3-((2-methoxyphenyl)ethynyl)pyridine-4-yl)-1H-indazol-3-amine], the Ki stood at 15 nM in test [1] and 484 nM in test [2].

As for `Nc1nccc(-c2ccc3[nH]nc(N)c3c2)c1C#CCCC(=O)c1ccccc1` [Example 82, 5-(2-Amino-4-(3-amino-1H-indazol-5-yl)pyridine-3-yl)-1-phenylpent-4-yn-1-one], the Ki in test [1] stood at 19 nM; in test [2], 537 nM.

For `CC(C)(O)CCC#Cc1c(-c2ccc3[nH]nc(N)c3c2)ccnc1N` [Example 86, 6-(2-Amino-4-(3-amino-1H-indazol-5-yl)pyridine-3-yl)-2-methylhex-5-yn-2-ol], the Ki in test [1] is 28 nM; in test [2], 390 nM.

Turning to `Nc1nccc(-c2ccc3[nH]nc(N)c3c2)c1C#CCCN1CCOCC1` [Example 94, 5-(2-Amino-3-(4-morpholinobut-1-yn-1-yl)pyridin-4-yl)-1H-indazol-3-amine], the Ki in test [1] worked out at 38 nM; in test [2], 922 nM.

On to `Nc1nccc(-c2ccc3[nH]nc(N)c3c2)c1C#CCC1CCNCC1` [Example 97, 5-(2-Amino-3-(3-(piperidin-4-yl)prop-1-yn-1-yl)pyridin-4-yl)-1H-indazol-3-amine], for which the Ki turned out to be 15 nM in test [1] and 105 nM in test [2].

Take `CNC(=O)C#Cc1c(-c2ccc3[nH]nc(N)c3c2)ccnc1N` [Example 98, 3-(2-Amino-4-(3-amino-1H-indazol-5-yl)pyridin-3-yl)-N-methylpropiolamide]: the Ki in test [1] and in test [2] was above 10000 nM each time.

Consider `Nc1nccc(-c2ccc3[nH]nc(N)c3c2)c1C1CC1` [Example 100, 5-(2-Amino-3-cyclopropylpyridin-4-yl)-1H-indazol-3-amine], for which the Ki was 1790 nM in test [1] and above 10000 nM in test [2].

With `Nc1cc(-c2cc(-c3cccc(F)c3)c3[nH]nc(N)c3c2)ccn1` [Example 105, 5-(2-Aminopyridin-4-yl)-7-(3-fluorophenyl)-1H-indazol-3-amine], the Ki was 40 nM in test [1] and 500 nM in test [2].

With `Nc1cc(-c2cc(-c3cccc(C(F)(F)F)c3)c3[nH]nc(N)c3c2)ccn1` [Example 106, 5-(2-Aminopyridin-4-yl)-7-(3-(trifluoromethyl)phenyl)-1H-indazol-3-amine], the Ki in test [1] came out at 162 nM; in test [2] it was 1010 nM.

On to `Nc1cccc(-c2cc(-c3ccnc(N)c3)cc3c(N)n[nH]c23)c1` [Example 107, 7-(3-Aminophenyl)-5-(2-aminopyridin-4-yl)-1H-indazol-3-amine], for which the Ki came out at 14 nM in test [1] and 545 nM in test [2].

In the case of `Nc1cc(-c2cc(-c3cccc(O)c3)c3[nH]nc(N)c3c2)ccn1` [Example 108, 3-(3-Amino-5-(2-aminopyridin-4-yl)-1H-indazol-7-yl)phenol], the Ki is 10 nM in test [1] and 680 nM in test [2].

Turning to `COc1cccc(-c2cc(-c3ccnc(N)c3)cc3c(N)n[nH]c23)c1` [Example 109, 5-(2-Aminopyridin-4-yl)-7-(3-methoxyphenyl)-1H-indazol-3-amine], the Ki came out at 55 nM in test [1] and 587 nM in test [2].

Consider `Nc1cc(-c2cc(-c3cccc(CO)c3)c3[nH]nc(N)c3c2)ccn1` [Example 110], for which the Ki was 29 nM in test [1] and 290 nM in test [2].

As for `Nc1cc(-c2cc(-c3cccc(C=O)c3)c3[nH]nc(N)c3c2)ccn1` [Example 111, 3-(3-Amino-5-(2-aminopyridin-4-yl)-1H-indazol-7-yl)benzaldehyde], the Ki in test [1] is 12 nM; in test [2] it was 100 nM.

In the case of `CCOC(=O)c1cccc(-c2cc(-c3ccnc(N)c3)cc3c(N)n[nH]c23)c1` [Example 112, Ethyl 3-(3-amino-5-(2-aminopyridin-4-yl)-1H-indazol-7-yl)benzoate], the Ki turned out to be 152 nM in test [1] and 1470 nM in test [2].

For the molecule `NC(=O)c1cccc(-c2cc(-c3ccnc(N)c3)cc3c(N)n[nH]c23)c1` [Example 113, 3-(3-Amino-5-(2-aminopyridin-4-yl)-1H-indazol-7-yl)benzamide], the Ki stood at 43 nM in test [1] and 840 nM in test [2].
